# Measurements as given in ChEMBL document CHEMBL1125660, “Synthesis and aromatase inhibitory activity of novel 1-(4-aminophenyl)-3-azabicyclo[3.1.0]hexane- and -[3.1.1]heptane-2,4- diones” (J Med Chem, 1991).
# Experiments:
# [1] = molecular target: T1, Steroid 17-alpha-hydroxylase/17,20 lyase (Homo sapiens, UniProt P05093); format: functional
# T1 sequence (P05093 whole entry): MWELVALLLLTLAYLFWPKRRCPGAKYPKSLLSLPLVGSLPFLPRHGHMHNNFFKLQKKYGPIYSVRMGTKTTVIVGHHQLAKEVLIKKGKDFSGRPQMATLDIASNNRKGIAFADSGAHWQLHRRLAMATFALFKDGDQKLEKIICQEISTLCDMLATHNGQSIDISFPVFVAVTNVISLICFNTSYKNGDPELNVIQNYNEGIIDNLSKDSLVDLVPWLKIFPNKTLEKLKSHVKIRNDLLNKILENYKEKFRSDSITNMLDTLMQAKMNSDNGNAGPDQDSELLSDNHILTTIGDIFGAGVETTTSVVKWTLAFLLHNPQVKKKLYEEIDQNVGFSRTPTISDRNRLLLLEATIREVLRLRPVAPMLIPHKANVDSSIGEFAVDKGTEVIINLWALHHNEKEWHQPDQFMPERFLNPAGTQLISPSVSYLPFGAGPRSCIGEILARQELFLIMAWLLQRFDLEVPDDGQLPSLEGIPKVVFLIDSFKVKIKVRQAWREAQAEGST
# [2] = molecular target: T2, Cytochrome P450 11B2, mitochondrial (Rattus norvegicus, UniProt P30099)
# T2 sequence (P30099 whole entry): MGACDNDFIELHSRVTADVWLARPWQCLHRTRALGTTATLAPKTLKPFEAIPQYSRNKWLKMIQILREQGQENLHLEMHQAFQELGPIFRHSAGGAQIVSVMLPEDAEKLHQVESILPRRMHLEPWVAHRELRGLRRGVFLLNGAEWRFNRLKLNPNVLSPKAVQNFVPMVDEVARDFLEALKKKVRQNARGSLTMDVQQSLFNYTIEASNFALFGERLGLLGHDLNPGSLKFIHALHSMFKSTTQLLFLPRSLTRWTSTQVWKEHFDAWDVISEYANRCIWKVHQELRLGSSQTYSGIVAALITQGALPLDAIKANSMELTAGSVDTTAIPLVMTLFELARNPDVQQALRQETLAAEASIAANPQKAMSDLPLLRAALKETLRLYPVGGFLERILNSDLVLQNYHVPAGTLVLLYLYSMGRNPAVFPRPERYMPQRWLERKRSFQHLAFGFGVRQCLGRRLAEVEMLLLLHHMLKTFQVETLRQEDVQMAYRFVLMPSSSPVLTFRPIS
# Aromatase [3] = molecular target: T3, Aromatase (Rattus norvegicus, UniProt P22443); conditions: in vivo, po
# T3 sequence (P22443 whole entry): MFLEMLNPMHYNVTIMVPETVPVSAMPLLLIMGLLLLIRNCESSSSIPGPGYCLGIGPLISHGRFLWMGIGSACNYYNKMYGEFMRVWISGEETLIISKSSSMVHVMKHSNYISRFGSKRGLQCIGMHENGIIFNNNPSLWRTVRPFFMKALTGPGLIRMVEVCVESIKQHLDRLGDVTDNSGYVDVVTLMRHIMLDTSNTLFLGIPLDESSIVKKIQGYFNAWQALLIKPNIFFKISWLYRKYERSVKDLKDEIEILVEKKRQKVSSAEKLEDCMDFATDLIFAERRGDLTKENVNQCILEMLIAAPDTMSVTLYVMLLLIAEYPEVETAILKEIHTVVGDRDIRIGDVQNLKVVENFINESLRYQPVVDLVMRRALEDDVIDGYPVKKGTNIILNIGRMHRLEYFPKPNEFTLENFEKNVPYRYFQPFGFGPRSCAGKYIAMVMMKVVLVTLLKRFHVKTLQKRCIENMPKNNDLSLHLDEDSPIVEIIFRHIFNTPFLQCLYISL
# Rattus norvegicus [4] = organism: Rattus norvegicus; format: functional; conditions: dose 31.3 mg/kg; route oral
# Rattus norvegicus [5] = organism: Rattus norvegicus; format: functional; conditions: dose 62.5 mg/kg; route oral
# Rattus norvegicus [6] = organism: Rattus norvegicus; format: functional; conditions: dose 125 mg/kg; route oral
# Rattus norvegicus [7] = organism: Rattus norvegicus; format: functional; conditions: dose 15.6 mg/kg; route oral
# Rattus norvegicus [8] = organism: Rattus norvegicus; format: functional; conditions: dose 125 mg/kg; route oral; remark: listed apart in the source
# Rattus norvegicus [9] = organism: Rattus norvegicus; format: functional; conditions: dose 15.6 mg/kg; route oral; remark: listed apart in the source
# Rattus norvegicus [10] = organism: Rattus norvegicus; format: functional; conditions: dose 62.5 mg/kg; route oral; remark: listed apart in the source
# Rattus norvegicus [11] = organism: Rattus norvegicus; format: functional; conditions: dose 125 mg/kg; route oral; remark: listed apart in the source
# Rattus norvegicus [12] = organism: Rattus norvegicus; format: functional; conditions: dose 25.6 mg/kg; route oral
# Rattus norvegicus [13] = organism: Rattus norvegicus; format: functional; conditions: dose 31.3 mg/kg; route oral; remark: listed apart in the source
# Rattus norvegicus [14] = organism: Rattus norvegicus; format: functional; conditions: dose 62.5 mg/kg; route oral; remark: listed apart in the source
# Rattus norvegicus [15] = organism: Rattus norvegicus; format: functional; conditions: dose 31.3 mg/kg
# Rattus norvegicus [16] = organism: Rattus norvegicus; format: functional; conditions: dose 62.5 mg/kg; route oral; remark: listed apart in the source
# Rattus norvegicus [17] = organism: Rattus norvegicus; format: functional; conditions: dose 12.5 mg/kg
# Rattus norvegicus [18] = organism: Rattus norvegicus; format: functional; conditions: dose 15.6 mg/kg
# Rattus norvegicus [19] = organism: Rattus norvegicus; format: functional; conditions: dose 31.3 mg/kg; remark: listed apart in the source
# Rattus norvegicus [20] = organism: Rattus norvegicus; format: functional; conditions: dose 62.5 mg/kg
# Rattus norvegicus [21] = organism: Rattus norvegicus; format: functional
# Rattus norvegicus [22] = organism: Rattus norvegicus; format: functional; conditions: dose 15.6 mg/kg; remark: listed apart in the source
# Rattus norvegicus [23] = organism: Rattus norvegicus; format: functional; conditions: dose 31.3 mg/kg; route oral; remark: listed apart in the source
# [24] = molecular target: T2, Cytochrome P450 11B2, mitochondrial; remark: listed apart in the source
# [25] = molecular target: T1, Steroid 17-alpha-hydroxylase/17,20 lyase; format: functional; remark: listed apart in the source
# Rattus norvegicus [26] = organism: Rattus norvegicus; format: functional; conditions: dose 100 mg/kg; route oral
# Rattus norvegicus [27] = organism: Rattus norvegicus; format: functional; conditions: dose 30 mg/kg; route oral
# Rattus norvegicus [28] = organism: Rattus norvegicus; format: functional; conditions: dose 100 mg/kg; route oral; remark: listed apart in the source
# Rattus norvegicus [29] = organism: Rattus norvegicus; format: functional; conditions: dose 30 mg/kg; route oral; remark: listed apart in the source
# Rattus norvegicus [30] = organism: Rattus norvegicus; format: functional; conditions: dose 100 mg/kg; route oral; remark: listed apart in the source
# Rattus norvegicus [31] = organism: Rattus norvegicus; format: functional; conditions: dose 30 mg/kg; route oral; remark: listed apart in the source
# Rattus norvegicus [32] = organism: Rattus norvegicus; format: functional; conditions: dose 30 mg/kg
# Rattus norvegicus [33] = organism: Rattus norvegicus; format: functional; remark: listed apart in the source
# Rattus norvegicus [34] = organism: Rattus norvegicus; format: functional; conditions: dose 30 mg/kg; route oral; remark: listed apart in the source
# Rattus norvegicus [35] = organism: Rattus norvegicus; format: functional; conditions: dose 100 mg/kg
# [36] = molecular target: T2, Cytochrome P450 11B2, mitochondrial; remark: listed apart in the source
# [37] = molecular target: T2, Cytochrome P450 11B2, mitochondrial; remark: listed apart in the source
# Aromatase [38] = molecular target: T3, Aromatase; conditions: in vivo, po; remark: listed apart in the source
structure (smiles),measurement,setting,value
Nc1ccc(C23CC(C2)C(=O)N(C2CCCCC2)C3=O)cc1,IC50,[1],140 µM
same,IC50,[2],140 µM
same,ED,Aromatase [3],0.3 mg/kg
Nc1ccc(C23CC2C(=O)N(CC2CCCCC2)C3=O)cc1 (stereo unspecified),IC50,[1],> 330 µM
same,Response,Rattus norvegicus [4],55%
same,Response,Rattus norvegicus [5],4.1%
same,Response,Rattus norvegicus [6],5%
same,Response,Rattus norvegicus [7],78.3%
same,Response,Rattus norvegicus [8],0%
same,Response,Rattus norvegicus [9],17.4%
same,Response,Rattus norvegicus [10],4.2%
same,Response,Rattus norvegicus [11],82.6%
same,Response,Rattus norvegicus [12],4.3%
same,Response,Rattus norvegicus [13],15%
same,Response,Rattus norvegicus [14],91.6%
same,No. of tumors,Rattus norvegicus [15],20
same,No. of tumors,Rattus norvegicus [16],24
same,New tumors,Rattus norvegicus [17],0
same,New tumors,Rattus norvegicus [18],3
same,New tumors,Rattus norvegicus [19],3
same,New tumors,Rattus norvegicus [20],0
same,No. of tumors,Rattus norvegicus [21],23
same,No. of tumors,Rattus norvegicus [22],23
same,Response,Rattus norvegicus [23],30%
same,IC50,[24],> 330 µM
same,ED,Aromatase [3],1.5 mg/kg
CCC1(c2ccc(N)cc2)CCC(=O)NC1=O (stereo unspecified) [AMINOGLUTETHIMIDE],IC50,[25],60 µM
same,Response,Rattus norvegicus [26],66.6%
same,Response,Rattus norvegicus [27],91.6%
same,Response,Rattus norvegicus [28],22.2%
same,Response,Rattus norvegicus [29],4.1%
same,Response,Rattus norvegicus [30],11.2%
same,Response,Rattus norvegicus [31],4.25%
same,New tumors,Rattus norvegicus [32],4
same,No. of tumors,Rattus norvegicus [33],18
same,No. of tumors,Rattus norvegicus [34],24
same,New tumors,Rattus norvegicus [35],5
same,IC50,[36],110 µM
Nc1ccc(C23CC2C(=O)N(CC2CCCCC2)C3=O)cc1 (stereo in doubt; (+)-1h),IC50,[25],> 34 µM
same,IC50,[37],> 34 µM
same,ED,Aromatase [38],1 mg/kg
